Measured values: US20100298141A1, “SUBSTITUTED PYRIDINE N-OXIDE HERBICIDES” (E. I. DU PONT DE NEMOURS AND COMPANY, priority 2007, published 2010)

Tests used:
cocklebur = assay: Test C pre-/postemergence test; assay type: in vivo, Xanthium strumarium
Method in brief: (§1)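 Compounds in a non-phytotoxic solvent with surfactant applied preemergence to seeded pots and, at the same time, postemergence to plants 2–18 cm tall (1- to 4-leaf stage). Paddy tests: pots flooded to 3 cm, compound applied into the water, depth held throughout.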

catchweed bedstraw = assay: Test C pre-/postemergence test; assay type: in vivo, Galium aparine
Text: Seeds of plant species selected from blackgrass (Alopecurus myosuroides), downy brome (Bromus tectorum), green foxtail (Setaria viridis), Italian ryegrass (Lolium multiflorum), wheat (Triticum aestivum), wild oat (Avena fatua), catchweed bedstraw (Galium aparine), Russian thistle (Salsola kali), […] (Cynodon dactylon), Surinam grass (Brachiaria decumbens), cocklebur (Xanthium strumarium), corn (Zea mays), crabgrass (Digitaria sanguinalis), woolly cupgrass (Eriochloa villosa), giant foxtail (Setaria faberii), Goosegrass (Eleusin indica), johnsongrass (Sorghum halepense), kochia (Kochia scoparia), lambsquarters (Chenopodium album), morningglory (Ipomoea coccinea), eastern black nightshade (Solanum ptycanthum), yellow nutsedge (Cyperus esculentus), pigweed (Amaranthus retroflexus), common ragweed (Ambrosia elation), soybean (Glycine max), common (oilseed) sunflower (Helianthus annuus), and velvetleaf (Abutilon theophrasti) were planted and treated preemergence with test chemicals formulated in a non-phytotoxic solvent mixture which included a surfactant. At the same time, plants selected from these crop and weed species and also winter barley (Hordeum vulgare), canarygrass (Phalaris minor), and chickweed (Stellaria media) were treated with postemergence applications of some of the test chemicals formulated in the same manner. Plants ranged in height from 2 to 18 cm (1- to 4-leaf stage) for postemergence treatments. […] At time of treatment, test pots were flooded to 3 cm above the soil surface, treated by application of test compounds directly to the paddy water, and then maintained at that water depth for the duration of the test. […] A dash (-) response means no test result.

wild oat = assay: Test C pre-/postemergence test; assay type: in vivo, Avena fatua
Method in brief: as §1

soybean = assay: Test C pre-/postemergence test; assay type: in vivo, Glycine max
Method in brief: as §1

downy brome = assay: Test C pre-/postemergence test; assay type: in vivo, Bromus tectorum
Method in brief: as §1

green foxtail = assay: Test C pre-/postemergence test; assay type: in vivo, Setaria viridis
Method in brief: as §1

woolly cupgrass = assay: Test C pre-/postemergence test; assay type: in vivo, Eriochloa villosa
Method in brief: as §1

Italian ryegrass = assay: Test C pre-/postemergence test; assay type: in vivo, Lolium multiflorum
Method in brief: as §1

velvetleaf = assay: Test A pre-/postemergence greenhouse test; assay type: in vivo, Abutilon theophrasti; conditions: for Velvetleaf plant response rating: 0 to 100 scale
Method in brief: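 Visual injury ratings against untreated controls, taken roughly ten days after treatment in greenhouse. Plants were sprayed postemergence at one- to two-leaf stage (2–10 cm tall); at the same time, seeded loam/sand soil received a directed preemergence spray. Formulation: non-phytotoxic solvent mixture with surfactant.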

morningglory = assay: Test C pre-/postemergence test; assay type: in vivo, Ipomoea coccinea
Method in brief: as §1

johnsongrass = assay: Test C pre-/postemergence test; assay type: in vivo, Sorghum halepense
Method in brief: as §1

giant foxtail = assay: Test C pre-/postemergence test; assay type: in vivo, Setaria faberii
Method in brief: as §1

barnyardgrass = assay: Test C flooded paddy test; assay type: in vivo, Echinochloa crus-galli; conditions: Flood
Method in brief: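 Pots were flooded to 3 cm above the soil surface at treatment, compound applied directly to the paddy water, and that depth held throughout. Plants were kept in a greenhouse for 13 to 15 days, then visually rated against untreated controls.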

blackgrass = assay: Test C pre-/postemergence test; assay type: in vivo, Alopecurus myosuroides
Method in brief: as §1

corn = assay: Test C pre-/postemergence test; assay type: in vivo, Zea mays
Method in brief: as §1

[1] = 31 g ai/ha, Preemergence, scale 0 to 100
[2] = 62 g ai/ha, preemergence, scale 0 (no effect) to 100 (complete control)
[3] = preemergence, 125 g ai/ha, scale 0 (no effect) to 100 (complete control)

## Cn1nc(C(F)(F)F)c(CS(=O)(=O)c2cccc[n+]2[O-])c1OC(F)F [Compound 4]
cocklebur; [1]
  Cocklebur plant response rating: 0
cocklebur; [2]
  Cocklebur plant response rating: 0
cocklebur; Preemergence, 250 g ai/ha
  Plant response rating (0 to 100), Cocklebur: 0
cocklebur; [3]
  Cocklebur plant response rating: 0
Catchweed bedstraw; [1]
  Galium plant response rating: 70
Catchweed bedstraw; [2]
  Galium plant response rating: 90
Catchweed bedstraw; Preemergence, 250 g ai/ha
  Plant response rating (0 to 100), Galium: 100
Catchweed bedstraw; [3]
  Galium plant response rating: 100
Wild oat; [1]
  Oat, Wild plant response rating: 10
Wild oat; [2]
  Oat, Wild plant response rating: 50
Wild oat; Preemergence, 250 g ai/ha
  Plant response rating (0 to 100), Oat, Wild: 70
Wild oat; [3]
  Oat, Wild plant response rating: 65
soybean; [1]
  Soybean plant response rating: 0
soybean; [3]
  Soybean plant response rating: 0
Downy brome; [1]
  Bromegrass, Downy plant response rating: 0
Downy brome; [2]
  Bromegrass, Downy plant response rating: 0
Downy brome; Preemergence, 250 g ai/ha
  Plant response rating (0 to 100), Bromegrass, Downy: 70
Downy brome; [3]
  Bromegrass, Downy plant response rating: 0
Green foxtail; [1]
  Foxtail, Green plant response rating: 100
Green foxtail; [2]
  Foxtail, Green plant response rating: 100
Green foxtail; Preemergence, 250 g ai/ha
  Plant response rating (0 to 100), Foxtail, Green: 100
Green foxtail; [3]
  Foxtail, Green plant response rating: 100
Woolly cupgrass; [1]
  Cupgrass, Woolly plant response rating: 60
Woolly cupgrass; [2]
  Cupgrass, Woolly plant response rating: 98
Woolly cupgrass; Preemergence, 250 g ai/ha
  Plant response rating (0 to 100), Cupgrass, Woolly: 100
Woolly cupgrass; [3]
  Cupgrass, Woolly plant response rating: 98
Italian ryegrass; [1]
  Ryegrass, Italian plant response rating: 0
Italian ryegrass; [2]
  Ryegrass, Italian plant response rating: 60
Italian ryegrass; Preemergence, 250 g ai/ha
  Plant response rating (0 to 100), Ryegrass, Italian: 100
Italian ryegrass; [3]
  Ryegrass, Italian plant response rating: 100
velvetleaf; Postemergence, 125 g ai/ha, 0 is no effect, 100 is complete control
  Velvetleaf plant response rating: 50
velvetleaf; Postemergence, 500 g ai/ha, 0 is no effect, 100 is complete control
  Velvetleaf plant response rating: 80
velvetleaf; Preemergence, 125 g ai/ha, 0 no effect, 100 complete control
  Velvetleaf plant response rating: 50
velvetleaf; Preemergence, 500 g ai/ha, 0 to 100 scale where 0 is no effect and 100 is complete control
  Plant response rating, Velvetleaf: 90
morningglory; [1]
  Morningglory plant response rating: 0
morningglory; [2]
  Morningglory plant response rating: 0
morningglory; Preemergence, 250 g ai/ha
  Plant response rating (0 to 100), Morningglory: 100
morningglory; [3]
  Morningglory plant response rating: 85
johnsongrass; [1]
  Johnsongrass plant response rating: 95
johnsongrass; [2]
  Johnsongrass plant response rating: 95
johnsongrass; Preemergence, 250 g ai/ha
  Plant response rating (0 to 100), Johnsongrass: 100
johnsongrass; [3]
  Johnsongrass plant response rating: 100
Giant foxtail; [1]
  Foxtail, Giant plant response rating: 90
Giant foxtail; [2]
  Foxtail, Giant plant response rating: 100
Giant foxtail; Preemergence, 250 g ai/ha
  Plant response rating (0 to 100), Foxtail, Giant: 100
Giant foxtail; [3]
  Foxtail, Giant plant response rating: 100
barnyardgrass; 31 g ai/ha, scale 0 to 100 (0 no effect, 100 complete control)
  Plant response rating, Barnyardgrass: 0
barnyardgrass; 62 g ai/ha, scale 0 to 100, 0 no effect, 100 complete control, 13 to 15 days
  Plant response rating, Barnyardgrass: 35
barnyardgrass; 125 g ai/ha, scale 0 to 100, 0 no effect, 100 complete control, 13 to 15 days
  Plant response rating, Barnyardgrass: 85
barnyardgrass; 250 g ai/ha, scale 0 to 100 (0 no effect, 100 complete control)
  Plant response rating, Barnyardgrass: 90
blackgrass; [1]
  Blackgrass plant response rating: 70
blackgrass; [2]
  Blackgrass plant response rating: 80
blackgrass; Preemergence, 250 g ai/ha
  Plant response rating (0 to 100), Blackgrass: 100
blackgrass; [3]
  Blackgrass plant response rating: 95
corn; [1]
  Corn plant response rating: 0
corn; [2]
  Corn plant response rating: 50
corn; Preemergence, 250 g ai/ha
  Plant response rating (0 to 100), Corn: 70
corn; [3]
  Corn plant response rating: 55
